Source: US20170065564A1, “BIS-CYCLIC GUANIDINE COMPOUND COMPOSITIONS, METHODS OF USE AND TREATMENT THEREOF” (University of South Florida, priority 2014, published 2017)

Columns and labels:
[1] = tested on: ESKAPE pathogens; test: MIC micro broth dilution assay, statements and stacked scores over all ESKAPE pathogens; type: cell-based; conditions: for pathogens against which the compound showed activity at 4 ug/ml / pathogens against which the compound showed activity at 5 ug/ml / pathogens against which the compound showed activity at 10 ug/ml / pathogens against which the compound showed activity at 25 ug/ml: letters E,S,K,A,P,E = ESKAPE pathogens, — = none
Method in brief: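 Overnight cultures of multidrug-resistant clinical isolates, diluted 1 in 1,000 (Gram-positives in TSB, Gram-negatives in LB), were exposed to decreasing compound concentrations in DMF (≤2.0%) at 37° C. MIC was read visually as no turbidity after 24 hours, in triplicate. Broad-spectrum activity was ranked by stacked scores.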

[2] = tested on: Pseudomonas aeruginosa; test: MIC micro broth dilution assay; type: cell-based; conditions: for concentration inhibiting 90% of isolates: panel of P. aeruginosa clinical isolates
Description: For this study we used a representative panel of multi-drug resistant clinical ESKAPE pathogen isolates (Supplemental Table S6).^42 43 3a, 44 45 Gram-positive organisms were grown in tryptic soy broth media (TSB), whilst Gram-negative organisms were grown in lysogeny Broth (LB), as described by us previously. ^43 MIC and MBC determination assays.
Broth cultures of ESKAPE strains were grown overnight before being diluted 1 in 1,000 in fresh media. Sterile 96-well plates were loaded with culture and compounds (in DMF) were added at decreasing concentrations to equal a total volume of 200 μl per well. Care was taken to not add more than 2.0% DMF to any well. Plates were then incubated at 37° C., and MICs determined after 24 hours by visual inspection for a lack of turbidity in wells. All assays were performed in triplicate with identical results obtained. For both the scaffold ranking and positional scanning samples, relative broad-spectrum activity was determined via stacked scores: […]

[3] = tested on: human A549 cells; test: Cytotoxicity assay (MTT); type: cell-based; conditions: for IC50: MTT, 48 hours
Description: Cytotoxicity assays were performed using human A549 cells (adenocarcinomic human alveolar epithelial cells), as described by us previously.^44 Briefly, cells were cultured in F-12K Nutrient mixture (Kaighn's Modification) media containing L-glutamine, supplemented with 10% fetal bovine serum and 1% penicillin-streptomycin for 3 days at 37° and 5% CO2. Cells were then diluted to 1.0×10^5 ml^−1 using F-12K supplemented media, and added to 96 well tissue culture plates at a volume of 100 μl. Plates were incubated for 24 hours at 37° C. and 5% CO2, allowing the cells to adhere to the plastic. […] Plates were then incubated for 48 hours at 37° C. and 5% CO2. After 48 hours the media was removed, and new media added containing MTT (3-(4, 5-dimethylthiazol-2-yl)-2, 5-diphenyltetrazolium bromide), followed by incubation for four hours at 37° C. and 5% CO2. After 4 h, 50 μl of media was removed, replaced with DMSO and incubated for ten minutes at 37° C. in order to solubilize any formazan produced. A Biotek plate reader was used to measure the absorbance of formazan production at […], and IC50 values were determined for each of the five compounds. Front runners were solvated in 45% w/v (2-hydroxypropyl)-β-cyclodextrin in water for these studies; which was also used alone as a negative control. IC50 values were determined for each compound by comparison to vehicle only controls, to assess toxicity to human cells.

[4] = tested on: Staphylococcus aureus; test: MIC micro broth dilution assay; type: cell-based; set-up: key to stacked score activity, 100/MIC, S: stacked score = 100/MIC; conditions: for stacked score activity, 100/MIC, S: S. aureus
Method in brief: (§1)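 Multidrug-resistant clinical ESKAPE isolates were grown overnight (Gram-positives in TSB, Gram-negatives in LB), diluted 1:1,000 and exposed to decreasing compound concentrations in DMF (≤2.0% DMF).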

[5] = tested on: Acinetobacter baumannii; test: MIC micro broth dilution assay; type: cell-based; set-up: key to stacked score activity, 100/MIC, A: stacked score = 100/MIC; conditions: for stacked score activity, 100/MIC, A: A. baumannii
Method in brief: as §1

[6] = tested on: Klebsiella pneumoniae; test: MIC micro broth dilution assay; type: cell-based; set-up: key to stacked score activity, 100/MIC, K: stacked score = 100/MIC; conditions: for stacked score activity, 100/MIC, K: K. pneumoniae
Method in brief: as §1

[7] = tested on: S. aureus; test: Resistance serial passage assay; type: cell-based, Staphylococcus aureus; conditions: 8 passages, concentration doubled each day
Description: ESKAPE pathogens were grown overnight in liquid media at 37° C. These cultures were then diluted 1:100 in fresh media, and seeded into a 96-well plate. Lead bis-cyclic guanidines or control agents were added to respective wells at half MIC concentrations. Plates were then incubated for 24 hours at 37° C., with bacteria removed from these cultures on the following day, to inoculate fresh media (1:100 dilution) containing compounds at a 2-fold higher concentrations. These were then grown overnight, and the procedure repeated for a total of eight days. […] Each experiment was performed in triplicate, yielding identical results.

[8] = panel of K. pneumoniae clinical isolates

CCCCCCCN1C(=N)N(CCCC[C@H]2CNC(=N)N2CCCCC2CCCCC2)C[C@@H]1CC1CCCCC1 [Compound 16]
16 fold: increase in MIC after serial passage [7]
5 µM: concentration inhibiting 90% of isolates [2] | MIC ([6]; Klebsiella pneumoniae, K. pneumoniae isolate 1434) | concentration inhibiting 90% of isolates [6, 8]
> 225 µM: IC50 ([3]; Homo sapiens, A549)
ESKAPE: pathogens against which the compound showed activity at 5 ug/ml [1] | pathogens against which the compound showed activity at 10 ug/ml [1] | pathogens against which the compound showed activity at 25 ug/ml [1]
3 µM: MIC ([2]; Pseudomonas aeruginosa, P. aeruginosa isolate 1414) | MIC ([2]; Pseudomonas aeruginosa, P. aeruginosa isolate 1415) | MIC ([2]; Pseudomonas aeruginosa, P. aeruginosa isolate 1417) | MIC ([2]; Pseudomonas aeruginosa, P. aeruginosa isolate 1419) | MIC ([2]; Pseudomonas aeruginosa, P. aeruginosa isolate 1420) | MIC ([2]; Pseudomonas aeruginosa, P. aeruginosa isolate 1421) | MIC ([2]; Pseudomonas aeruginosa, P. aeruginosa isolate 1422) | MIC ([6]; Klebsiella pneumoniae, K. pneumoniae isolate 1409) | MIC ([6]; Klebsiella pneumoniae, K. pneumoniae isolate 1410) | MIC ([6]; Klebsiella pneumoniae, K. pneumoniae isolate 1412) | MIC ([6]; Klebsiella pneumoniae, K. pneumoniae isolate 1413) | MIC ([6]; Klebsiella pneumoniae, K. pneumoniae isolate 1440)
33: stacked score activity, 100/MIC, A [5]
20: stacked score activity, 100/MIC, S [4] | stacked score activity, 100/MIC, K [6]
7 µM: MIC ([2]; Pseudomonas aeruginosa, P. aeruginosa isolate 1418)
EAP: pathogens against which the compound showed activity at 4 ug/ml [1]
1.62 µM: MIC ([2]; Pseudomonas aeruginosa, purified compound, Table 1) | MIC ([4]; Staphylococcus aureus, purified compound, Table 1) | MIC ([5]; Acinetobacter baumannii, purified compound, Table 1) | MIC ([6]; Klebsiella pneumoniae, purified compound, Table 1)
2 µM: MIC ([2]; Pseudomonas aeruginosa, P. aeruginosa isolate 1416) | MIC ([2]; Pseudomonas aeruginosa, P. aeruginosa isolate 1423) | MIC ([4]; Staphylococcus aureus, S. aureus isolate 542) | MIC ([4]; Staphylococcus aureus, S. aureus isolate 626) | MIC ([4]; Staphylococcus aureus, S. aureus isolate 635) | MIC ([4]; Staphylococcus aureus, S. aureus isolate 648) | MIC ([4]; Staphylococcus aureus, S. aureus isolate 690) | MIC ([4]; Staphylococcus aureus, S. aureus isolate 693) | MIC ([4]; Staphylococcus aureus, S. aureus isolate 715) | MIC ([4]; Staphylococcus aureus, S. aureus isolate 728) | MIC ([4]; Staphylococcus aureus, S. aureus isolate 834) | MIC ([4]; Staphylococcus aureus, S. aureus isolate 1043) | MIC ([4]; Staphylococcus aureus, S. aureus isolate 1049) | MIC ([5]; Acinetobacter baumannii, A. baumannii isolate 1403) | MIC ([5]; Acinetobacter baumannii, A. baumannii isolate 1643) | MIC ([5]; Acinetobacter baumannii, A. baumannii isolate 1644) | MIC ([5]; Acinetobacter baumannii, A. baumannii isolate 1647) | MIC ([5]; Acinetobacter baumannii, A. baumannii isolate 1648) | MIC ([5]; Acinetobacter baumannii, A. baumannii isolate 1649) | MIC ([5]; Acinetobacter baumannii, A. baumannii isolate 1650) | MIC ([5]; Acinetobacter baumannii, A. baumannii isolate 1651) | MIC ([5]; Acinetobacter baumannii, A. baumannii isolate 1653) | MIC ([5]; Acinetobacter baumannii, A. baumannii isolate 1654) | MIC ([6]; Klebsiella pneumoniae, K. pneumoniae isolate 1408) | MIC ([6]; Klebsiella pneumoniae, K. pneumoniae isolate 1411) | MIC ([6]; Klebsiella pneumoniae, K. pneumoniae isolate 1433) | MIC ([6]; Klebsiella pneumoniae, K. pneumoniae isolate 1441)

CCCCCCCN1C(=N)N(CCCC[C@H]2CNC(=N)N2CCC23CC4CC(CC(C4)C2)C3)C[C@@H]1CCCC [Compound 19]
ESKAPE: pathogens against which the compound showed activity at 5 ug/ml [1] | pathogens against which the compound showed activity at 10 ug/ml [1] | pathogens against which the compound showed activity at 25 ug/ml [1]
16 fold: increase in MIC after serial passage [7]
33: stacked score activity, 100/MIC, S [4]
10 µM: concentration inhibiting 90% of isolates [2]
20: stacked score activity, 100/MIC, K [6]
25: stacked score activity, 100/MIC, A [5]
5 µM: concentration inhibiting 90% of isolates [6, 8]
2.0 µM: MIC ([2]; P. aeruginosa isolate 1423) | MIC ([4]; S. aureus isolate 542) | MIC ([4]; S. aureus isolate 626) | MIC ([4]; S. aureus isolate 635) | MIC ([4]; S. aureus isolate 648) | MIC ([4]; S. aureus isolate 690) | MIC ([4]; S. aureus isolate 693) | MIC ([4]; S. aureus isolate 715) | MIC ([4]; S. aureus isolate 728) | MIC ([4]; S. aureus isolate 834) | MIC ([4]; S. aureus isolate 1043) | MIC ([4]; S. aureus isolate 1049) | MIC ([5]; A. baumannii isolate 1403) | MIC ([5]; A. baumannii isolate 1643) | MIC ([5]; A. baumannii isolate 1644) | MIC ([5]; A. baumannii isolate 1647) | MIC ([5]; A. baumannii isolate 1648) | MIC ([5]; A. baumannii isolate 1649) | MIC ([5]; A. baumannii isolate 1650) | MIC ([5]; A. baumannii isolate 1651) | MIC ([5]; A. baumannii isolate 1653) | MIC ([5]; A. baumannii isolate 1654) | MIC ([6]; K. pneumoniae isolate 1408) | MIC ([6]; K. pneumoniae isolate 1411) | MIC ([6]; K. pneumoniae isolate 1433) | MIC ([6]; K. pneumoniae isolate 1441)
ESAP: pathogens against which the compound showed activity at 4 ug/ml [1]
7.0 µM: MIC ([2]; P. aeruginosa isolate 1418)
5.0 µM: MIC ([2]; P. aeruginosa isolate 1414) | MIC ([2]; P. aeruginosa isolate 1415) | MIC ([2]; P. aeruginosa isolate 1420) | MIC ([2]; P. aeruginosa isolate 1421) | MIC ([2]; P. aeruginosa isolate 1422) | MIC ([6]; K. pneumoniae isolate 1434)
3.0 µM: MIC ([2]; P. aeruginosa isolate 1416) | MIC ([2]; P. aeruginosa isolate 1417) | MIC ([2]; P. aeruginosa isolate 1419) | MIC ([6]; K. pneumoniae isolate 1409) | MIC ([6]; K. pneumoniae isolate 1410) | MIC ([6]; K. pneumoniae isolate 1412) | MIC ([6]; K. pneumoniae isolate 1413) | MIC ([6]; K. pneumoniae isolate 1440)
156: stacked score Total ([1]; stacked score over all ESKAPE pathogens (details in Table S4b)) | Total stacked score ([1]; sum over all six ESKAPE pathogens)
≥ 26%: A549 cell recovery compared to vehicle only controls ([3]; above 45 μM, at concentrations up to 225 μM)
2 µM: concentration inhibiting 70% of strains [6, 8]
1.66 µM: MIC ([2]; purified compound, Table 1) | MIC ([4]; purified compound, Table 1) | MIC ([5]; purified compound, Table 1) | MIC ([6]; purified compound, Table 1)
146 µM: IC50 [3]
> 97%: A549 cell recovery compared to vehicle only controls ([3]; concentrations up to 45 μM)
> 70%: A549 cell recovery compared to vehicle only controls ([3]; 225 μM (highest concentration tested))
